Tests used:
[1] = Human microsomal stability assay; format: in vitro ADME; details: human liver microsomes, 1 μM test compound, 37° C., pH 7.4
Description: Human Microsomal Stability Assay
Human liver microsomes (Cat. NO.: 452117, Corning, USA) were preincubated with test compound for 10 minutes at 37° C. in 100 mM potassium phosphate buffer, pH 7.4. The reactions were initiated by adding NADPH regenerating system. The final incubation mixtures contained 1 μM test compound, 0.5 mg/mL liver microsomal protein, 1 mM MgCl2, 1 mM NADP, 1 unit/mL isocitric dehydrogenase and 6 mM isocitric acid in 100 mM potassium phosphate buffer, pH 7.4. After incubation times of 0, 3, 6, 9, 15 and 30 minutes at 37° C., 300 μL of cold ACN (including internal standard) was added to 100 μL incubation mixture to terminate the reaction. Following precipitation and centrifugation, 100 μL supernatant will be taken out and added 300 μL water. The amount of compound remaining in the samples was determined by LC-MS/MS. Controls of no NADPH regenerating system at zero and 30 minutes were also prepared and analyzed. The results were categorized as: low (<7.0 mL/min/kg), medium (7.0-16.2 mL/min/kg) and high (16.2-23.2 mL/min/kg).

human TLR7 = human TLR7 (Homo sapiens (Human), UniProt Q9NYK1); assay: HEK293-Blue-hTLR-7 cells assay; format: cell-based; details: HEK293-Blue-hTLR7 cells, R848 stimulation, 20 hrs, SEAP reporter; read-out: HEK/hTLR7 IC50
human TLR7, sequence (Q9NYK1 27-1049): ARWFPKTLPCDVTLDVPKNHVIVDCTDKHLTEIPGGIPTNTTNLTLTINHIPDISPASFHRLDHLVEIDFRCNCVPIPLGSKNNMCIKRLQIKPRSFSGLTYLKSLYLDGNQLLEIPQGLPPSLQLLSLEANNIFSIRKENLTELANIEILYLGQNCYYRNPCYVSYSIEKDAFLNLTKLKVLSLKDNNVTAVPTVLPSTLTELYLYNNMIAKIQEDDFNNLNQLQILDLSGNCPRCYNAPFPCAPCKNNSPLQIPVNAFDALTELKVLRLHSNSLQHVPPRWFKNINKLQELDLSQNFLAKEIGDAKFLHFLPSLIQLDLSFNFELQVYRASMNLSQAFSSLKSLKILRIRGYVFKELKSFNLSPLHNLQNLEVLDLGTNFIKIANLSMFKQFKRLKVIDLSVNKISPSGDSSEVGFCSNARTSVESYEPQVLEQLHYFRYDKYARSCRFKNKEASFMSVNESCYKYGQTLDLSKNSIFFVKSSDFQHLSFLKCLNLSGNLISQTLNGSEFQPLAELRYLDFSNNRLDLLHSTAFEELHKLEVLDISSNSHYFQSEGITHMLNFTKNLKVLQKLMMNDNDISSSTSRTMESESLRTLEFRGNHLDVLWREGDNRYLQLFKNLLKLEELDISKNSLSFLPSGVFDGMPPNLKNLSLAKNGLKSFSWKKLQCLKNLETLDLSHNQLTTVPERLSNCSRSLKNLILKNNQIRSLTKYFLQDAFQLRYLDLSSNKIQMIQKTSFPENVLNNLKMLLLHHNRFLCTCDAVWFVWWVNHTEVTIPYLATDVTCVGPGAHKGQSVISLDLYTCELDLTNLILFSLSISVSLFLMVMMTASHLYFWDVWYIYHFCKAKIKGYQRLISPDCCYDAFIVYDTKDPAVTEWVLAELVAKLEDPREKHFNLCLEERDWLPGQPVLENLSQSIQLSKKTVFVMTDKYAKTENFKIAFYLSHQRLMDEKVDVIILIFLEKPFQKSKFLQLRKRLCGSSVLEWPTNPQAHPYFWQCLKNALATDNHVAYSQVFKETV
How it was run: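 HEK293-Blue cells stably expressing hTLR7 with NF-κB/AP-1-driven SEAP reporter, incubated 20 h at 37 °C with serially diluted compound (1% DMSO) plus R848 agonist (10 μL of 20 μM stock). Supernatant SEAP measured with QUANTI-Blue after 2 h at 37 °C, absorbance 620-655 nm; antagonism as reduced reporter.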

Row | Compound | CL (h) [1] [mL/min/kg] | IC50 (human TLR7) [nM]
1 | C[C@@H]1CN(c2ccc(C#N)c3ncccc23)C[C@@H]2C[C@@H](Nc3cc4c(cn3)CCNC4)CN21 [Example 2, 5-[(4R,7R,8aS)-4-methyl-7-(5,6,7,8-tetrahydro-2,6-naphthyridin-3-ylamino)-3,4,6,7,8,8a-hexahydro-1H-pyrrolo[1,2-a]pyrazin-2-yl]quinoline-8-carbonitrile] | 7.3 | 40.5
2 | [2H]c1ccc2c(N3C[C@@H]4C[C@H](N5CCC(N(C)C)CC5)CN4[C@H](C)C3)ccc(C#N)c2n1 [Example 20, 5-[(4R,7S,8aS)-7-[4-(dimethylamino)-1-piperidyl]-4-methyl-3,4,6,7,8,8a-hexahydro-1H-pyrrolo[1,2-a]pyrazin-2-yl]-2-deuterio-quinoline-8-carbonitrile] | 6.2 | 18.9
3 | C[C@@H]1CN(c2ccc(C#N)c3ncccc23)C[C@@H]2C[C@@H](Nc3ccc4c(n3)CNCC4)CN21 [Example 3, 5-[(4R,7R,8aS)-4-methyl-7-(5,6,7,8-tetrahydro-1,7-naphthyridin-2-ylamino)-3,4,6,7,8,8a-hexahydro-1H-pyrrolo[1,2-a]pyrazin-2-yl]quinoline-8-carbonitrile] | 6.7 | 38.7

Stronger by IC50 (human TLR7), values ahead:

Row | CL (h) [1] [mL/min/kg] | IC50 (human TLR7) [nM] | Compound
4 | 9.1 | 16.1 | C[C@@H]1CN(c2ccc(C#N)c3ncccc23)C[C@@H]2C[C@@H](Nc3ccc4c(n3)CCNC4)CN21 [Example 1, 5-[(4R,7R,8aS)-4-methyl-7-(5,6,7,8-tetrahydro-1,6-naphthyridin-2-ylamino)-3,4,6,7,8,8a-hexahydro-1H-pyrrolo[1,2-a]pyrazin-2-yl]quinoline-8-carbonitrile]
5 | 8.0 | 12.9 | [2H]c1ccc2c(N3C[C@@H]4C[C@H](N5CCNCC5)CN4[C@H](C)C3)ccc(C#N)c2n1 [Example 15, 5-[(4R,7S,8aS)-4-methyl-7-piperazin-1-yl-3,4,6,7,8,8a-hexahydro-1H-pyrrolo[1,2-a]pyrazin-2-yl]-2-deuterio-quinoline-8-carbonitrile]

From patent publication US12486273B2 (Hoffmann-La Roche Inc., priority 2019, dated 2025)
